From PubChem BioAssay (NCI)
Several values for one entry are separate records, joined by “and”; a condition that tells them apart may be missing. Equal entries are not always repeated.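 Grown in 96-well plates, cells were treated for 48 hours with each compound at five concentrations. Insufficient inhibition: endpoint recorded as highest concentration tested. Abbreviation: GI50, concentration required for 50% inhibition of growth. TGI is the concentration that stops growth completely.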

Experiments:
Assay in all cases: NCI anticancer screen, dose series, 48 h
[1] = tested on: ACHN renal
[2] = tested on: CAKI-1 renal
[3] = tested on: HL-60(TB) leukemia
[4] = tested on: MDA-MB-231 breast
[5] = tested on: MDA-MB-435
[6] = tested on: NCI-H522 lung
[7] = tested on: OVCAR-4 ovarian
[8] = tested on: SK-MEL-2 melanoma
[9] = tested on: SN12C renal
[10] = tested on: U251 CNS

Structure (SMILES) | GI50 [1] | TGI [1] | GI50 [2] | TGI [2] | GI50 [3] | TGI [3] | GI50 [4] | TGI [4] | GI50 [5] | TGI [5] | GI50 [6] | TGI [6] | GI50 [7] | TGI [7] | GI50 [8] | TGI [8] | GI50 [9] | TGI [9] | GI50 [10] | TGI [10]
Nc1nc(-c2cccc(Cl)c2)c(-c2ccc3ncccc3n2)s1 | > 25 µM | > 25 µM | > 25 µM | > 25 µM | > 25 µM | > 25 µM | > 25 µM | > 25 µM | > 25 µM | > 25 µM | > 25 µM | > 25 µM | > 25 µM | > 25 µM | > 25 µM | > 25 µM | > 25 µM | > 25 µM | > 25 µM | > 25 µM
CO[C@H]1C=C[C@@]23c4cc5c(cc4CO[C@]2(O)CN(C)[C@H]3C1)OCO5 |  | > 100 µM |  | > 100 µM |  | > 100 µM |  | > 100 µM |  | > 100 µM |  | > 100 µM |  | > 100 µM |  | > 100 µM |  | > 100 µM |  | > 100 µM
C=C(C)C1CCC2(C(=O)O)CCC3(C)C(CCC4C5(C)CCC(OC(=O)NCc6ccccc6)C(C)(C)C5CCC43C)C12 (stereo not given) | 3.29 µM | > 100 µM | 1.63 µM | 15.7 µM | 2.39 µM | 28.1 µM | 5.69 µM | 54.3 µM | 5.33 µM | > 100 µM | 0.15 µM | 10.4 µM | 3.8 µM | > 100 µM | 5.46 µM | > 100 µM | 7.11 µM | > 100 µM | 3.07 µM | > 100 µM
CC(C)(C)c1cc(NC(=O)Cc2ccc(-c3cnc4cc(-c5cnn(CCN6CCOCC6)c5)ccc4n3)cc2)no1 | 0.151 µM and 0.302 µM and 0.0394 µM | 50 µM and > 100 µM and > 3 µM | 0.123 µM and 0.219 µM and 0.0253 µM | 50 µM and > 100 µM and > 3 µM | 0.225 µM and 0.546 µM and 0.158 µM | 50 µM and > 100 µM and > 3 µM | 0.622 µM and 0.573 µM | 50 µM and > 100 µM and > 2.85 µM | 0.356 µM and 0.452 µM and 0.0989 µM | 50 µM and > 100 µM and > 3 µM | 0.298 µM and 0.465 µM and 0.0962 µM | 50 µM and > 100 µM and > 3 µM | 0.158 µM and 0.363 µM and 0.0439 µM | 50 µM and 14.4 µM and > 1.16 µM | 0.347 µM and 0.42 µM and 0.0569 µM | 50 µM and > 100 µM and > 2.53 µM | 0.243 µM and 0.348 µM and 0.0645 µM | 50 µM and > 100 µM and > 3 µM | 0.337 µM and 0.456 µM and 0.0964 µM | 50 µM and > 100 µM and > 3 µM
Cn1cnc([N+](=O)[O-])c1[Se]c1nc(N)nc2c1ncn2C1OC(CO)C(O)C1O (stereo not given) |  | > 100 µM |  | > 100 µM |  | > 100 µM |  | > 100 µM |  | > 100 µM |  | > 100 µM |  | > 100 µM |  | > 100 µM |  | > 100 µM |  | > 100 µM
COc1ccccc1Cn1cc2c(c1-c1ccccc1)CCc1cnoc1-2 | 5.27 µM | > 100 µM | 1.86 µM | > 100 µM | 1.32 µM | 8.36 µM | 3.96 µM | > 100 µM | 0.279 µM | 1.44 µM | 0.398 µM | 1.99 µM | 8.56 µM | > 100 µM | 1.83 µM | 9.97 µM | 6.61 µM | > 100 µM | 4.06 µM | > 100 µM
